Data on two molecules can be found in patent US20060094664A1, “Deoxycholic acid derivatives for the treatment of acute dysfunctions of portal and hepatic venous circulation” (priority 2002, published 2006).

For data set [1], the system named is Wistar rats subjected to ligature of bile duct. Briefly: Hepatic fibrosis evaluated by an immunocytochemical method in bile duct ligated rats. The class given is in vivo, rat. The settings on record: a week treatment in bile duct ligated rats. The text has this: (§1) Twenty one Wistar rats were divided in three groups of 7 animals each and then subjected to ligature of bile duct. Within three weeks following the ligature, the animals were left on rest. As a consequence of the bile duct ligature, the animals developed dysfunctions of the hepatic and portal venous circulation. At the end of the third week, each group underwent the following weekly treatment protocol: • Group 1: control group treated with carrier (1% w/v water suspension of carboxymethylcellulose); • Group 2: treated with NO-urso at a dose of 28 mg/kg (0.04 mmol/kg), twice a day; • Group 3: treated with ursodeoxycholic acid (urso in table) at a dose of 15 mg/kg (0,04 mmol/kg), twice a day.

Data set [2] shares this test system. Briefly: Portal and systemic pressure after a week treatment in rats with bile duct ligature. Conditions: for Portal pressure After a week treatment: bile duct ligated Wistar rats, 0.04 mmol/kg twice a day intragastric for one week. Format: in vivo, rat.
Text: as §1, with “day. The rested compounds have been administered by intragastric cannula in 1% water suspension of carboxymethylcellulose. At the end of the treatment (fourth week) the animals were anaesthetized with urethane and then systemic pressure (MAP) and portal pressure (PP) were monitored by catheterisation both of the carotid and portal vein. The animal liver was then continuously perfused with Krebs solution (40 ml/min) balanced with O2/CO2 (95%-5%) using a peristaltic pump (Gilson) In this way the pharmacological effect of both tested compounds has been evaluated.” for “day.”

The test system of data set [3] is rat liver perfused with norepinephrine solution. Briefly: Perfused rat liver: intrahepatic constriction induced by norepinephrine, infusion of tested compound. Format: in vivo. Conditions: for Portal pressure % increase after NE infusion: liver perfused with norepinephrine 1 μM, then single infusion of 1 mM solution of tested compound. The method, then:
At the end of the treatment (fourth week) the animals were anaesthetized with urethane and then systemic pressure (MAP) and portal pressure (PP) were monitored by catheterisation both of the carotid and portal vein. The animal liver was then continuously perfused with Krebs solution (40 ml/min) balanced with O2/CO2 (95%-5%) using a peristaltic pump (Gilson) In this way the pharmacological effect of both tested compounds has been evaluated. The rat liver was then firstly perfused with norepinephrine solution (1 μM) in order to induce an intrahepatic circulation constriction. Afterwards, in groups 2 and 3 a single infusion with a 1 mM solution of each of the tested compounds was carried out and portal pressure variations have been monitored.

Marks after values point to notes of the source that are not given here.

For the molecule `COc1cc(/C=C/C(=O)OCCCCO[N+](=O)[O-])ccc1OC(=O)CC[C@@H](C)[C@H]1CC[C@H]2[C@@H]3[C@@H](O)C[C@@H]4C[C@H](O)CC[C@]4(C)[C@H]3CC[C@]12C` [NO-urso, (3α,5β,7β)-3,7-dihydroxycholan-24-oic Acid 2-methoxy-4[3-[4-(nitrooxy)butoxy]-3-oxo-1-propenyl]phenyl Ester], the “influence on hepatic fibrosis” value in data set [1] is on record as “does not modify”; in data set [1] (listed as No-urso), “do not influence”. Moreover, in data set [2] (after the week treatment, perfusion rate 40 ml/min, with respect to controls), the portal pressure reduction came to 3 mmHg. In addition, the “Portal pressure After a week treatment” value in data set [2] (perfusion rate 40 ml/min) is 14* mmHg. In addition, the “influence on systemic hemodynamic parameters (systemic pressure, cardiac frequency)” value in data set [2] (rat, in vivo) is reported as “do not influence”. Moreover, the “increase of intrahepatic resistance induced by norepinephrine” value in data set [3] (500% increase determined by NE infusion, NO-urso p<0.001) is recorded as “significantly reduced”. For the same molecule, in data set [3], the “Portal pressure % increase after NE infusion” value amounted to 180%.

Take `C[C@H](CCC(=O)O)[C@H]1CC[C@H]2[C@@H]3[C@@H](O)C[C@@H]4C[C@H](O)CC[C@]4(C)[C@H]3CC[C@]12C` [Urso, ursodeoxycholic acid]: in data set [2] (a week treatment in bile duct ligated rats), the “influence on systemic hemodynamic parameters (systemic pressure, cardiac frequency)” value is reported as “do not influence”. The “portal pressure increase with respect to controls” value in data set [2] (after the week treatment, perfusion rate 40 ml/min) is 2 mmHg. Besides, in data set [2] (perfusion rate 40 ml/min), the “Portal pressure After a week treatment” value is given as 19 mmHg. Moreover, the “Systemic hemodynamic parameters: Systemic pressure (MAP)” value in data set [2] (bile duct ligated rats after a week treatment, 0.04 mmol/kg twice a day, carotid catheterisation, in mmHg (unit assumed)) was 95 ± 12. In data set [2] (bile duct ligated rats after a week treatment, 0.04 mmol/kg twice a day, in beats/min (unit assumed)), the “Systemic hemodynamic parameters: Cardiac frequency” value stood at 372 ± 41. Also, the “Portal pressure % increase after NE infusion” value in data set [3] is 400%.
